Results: patent publication US12655171B2, “Compounds for activating invariant natural killer T-cells and methods of use in eliminating inflammatory senescent cells” (Deciduous Therapeutics, Inc., priority 2021, dated 2026)
Entries after “also recorded” stand apart in the source; their conditions may differ.

Assays:
mouse iTCR = experiment: In vitro activation of mouse iTCR, DN3.2 iNKT hybridoma with drug-loaded BWSTIM cells, IL-2 secretion; type: cell-based; settings: for IL-2 secretion compared to α-GalCer: drug loaded at 0.01 μg/mL, 48 hours co-culture, FIG. 2
Method: In order to determine the mouse iTCR activation potential induced by the compounds described herein, a mouse iNKT hybridoma cell line (DN3.2) from the La Jolla Institute for Allergy and Immunology were used as the iNKT. The BWS147 cell line (BWSTIM) with CD80 and CD1d acted as the antigen-presenting cell.
(§1) DCD molecules or α-GalCer were both dissolved in DMSO at a 5 mg/mL stock solution. BWSTIM cells were loaded with DCD molecules or α-GalCer of varying concentrations for 4 hours at 37° C. at a concentration of 20 k cells/well in 200 μL of media in a u-bottom 96 well dish. BWSTIM cells were washed 2× with media, then incubated with DN3.2 cells at a concentration of 80 k cells/well in a u-bottom 96 well dish. Cells were co-cultured for 48 hours. Media was collected and IL-2 was measured using the CisBio HTRF ELISA detection kit.
(§2) A jurkat cell line (JiNKT) was transfected with the human iTCR, and GFP under the NFkB promoter. A BWS147 cell line (BWSTIM) was also transfected with CD80 and CD1d to act as the antigen-presenting cell. A mouse iNKT hybridoma cell line (DN3.2) was also used as the iNKT. […]
as §1, with “GVK” for “DCD”, “compounds” for “DCD molecules or α-GalCer of varying concentrations”

iNKT cells [1] = experiment: In vivo iNKT cell expansion in spleen of C57BL/6J mice (flow cytometry); settings: 2 μg I.P.; four days post-injection; FIG. 4B
Method: (§3) In order to determine the expansion induced by the molecules described herein, molecules were injected into C57BL/6J mice. Serum IFNγ levels and the expansion of iNKT cells within splenocytes was measured 4 days post-IP injection.
(§4) Eight weeks old C57BL/6J mice were injected (I.P.) with 2 μg of α-GalCer or DCD molecules. Molecules were either dissolved in DMSO at a 5 mg/mL stock solution, or formulated into liposomes through thin-film rehydration, then extrusion through 200 nm filters. Liposome-based formulations were constructed using soy phosphatidylcholine, cholesterol, and DCD or α-GalCer in a 2:1:0.15 ratio. Twenty hours post-injection, blood was collected from the tail to measure the level of serum IFNγ using an ELISA kit from Biolegend. Four days post-injection, the mice were sacrificed and the spleenocytes were isolated. The percentage of iNKT cells within the spleens was measured using flow cytometry, selecting for live cells and mouse CD1d-α-GalCer tetramer+ cells.

serum IFNγ = experiment: In vivo serum IFNγ (ELISA) in C57BL/6J mice; settings: 2 μg I.P.; twenty hours post-injection; FIG. 4A
Method: as §3, §4

human iTCR = experiment: In vitro activation of human iTCR through Jurkat reporter cell line (JiNKT, GFP under NFkB promoter) with drug-loaded BWSTIM cells; type: cell-based; settings: for EC50 of the dose response based on percentage GFP+ cells, compared to α-GalCer: BWSTIM loaded 4 hours, co-culture with JiNKT 18 to 24 hours, FIG. 1
Method: In order to determine the human iTCR activation potential induced by the compounds described herein, a jurkat cell line (JiNKT) was transfected with the human iTCR, and GFP under the NFkB promoter (cell line licensed from the Medical University of Vienna). A BWS147 cell line (BWSTIM) was also transfected with CD80 and CD1d to act as the antigen-presenting cell.
(§5) DCD molecules or α-GalCer were both dissolved in DMSO at a 5 mg/mL stock solution. BWSTIM cells were loaded with DCD molecules or α-GalCer at varying concentrations for 4 hours at 37° C. at a concentration of 20 k cells/well in 200 μL of media in a u-bottom 96 well dish. BWSTIM cells were washed 2× with media, then incubated with JiNKT cells at a concentration of 80 k cells/well in a u-bottom 96 well dish. Cells were co-cultured for 18 to 24 hours. The percentage of cells expressing high levels of GFP was measured through flow cytometry (after gating out the mCD45+ BWSTIM cells).
as §2
as §5, with “GVK” for “DCD”, “compounds” for “DCD molecules or α-GalCer at varying concentrations”, “for” for “for 18 to”, “cytometry. 1 μg/mL of molecule GVK1a, GVK1b, GVK1c, or GVK1f was incubated with BWSTIM+JiNKT, and compared to α-GalCer.” for “cytometry (after gating out the mCD45+ BWSTIM cells).”

IFNγ = experiment: Diet induced obesity (HFD) mouse model: serum IFNγ (ELISA); type: in vivo, C57BL/6J mice; settings: for secretion of IFNγ in the HFD mouse model: between two and twenty hours post-treatment
Method: (§6) Senescence is a feature of pre-adipocytes in obese individuals. To study the efficacy of the molecules described herein in decreasing senescence in fat, a diet induced obesity high fat diet (HFD) mouse model was used. 22-week-old HFD mice were injected with α-GalCer as a control and compared with the compounds of the present disclosure. The blood and spleen (or adipose tissue) were collected to measure iNKT activation and expansion, respectively. Cells in the eWAT (adipose tissue) were also collected and measured for % senescent cells. HFD mice were compared to non-HFD (normal diet) mice.
(§7) 22-week-old C57BL/6J mice on a chow or high-fat diet (HFD) were injected (I.P) with […] of α-GalCer, compound DCD-101 or compound DCD-154. Molecules were either dissolved in DMSO at a 5 mg/mL stock solution, or formulated into liposomes through thin-film rehydration, then extrusion through 200 nm filters. Liposome-based formulations were constructed using soy phosphatidylcholine, cholesterol, and DCD or α-GalCer in a 2:1:0.15 ratio. Two or twenty hours post-injection, blood was collected from the tail to measure the level of IFNγ using ELISA. Four days post-injection, mice were sacrificed to collect eWAT or spleen. Spleen was used to measure the number of iNKT cells, and eWAT was used to measure the number of iNKT cells and senescent cells using flow cytometry. iNKT cells were identified in the digested adipose tissue by gating live cells and mouse CD1d-α-GalCer tetramer+ cells. Senescent cells were measured withing the processes adipose tissue by selecting mCD45− cells, and C12FDG^HIGH cells.

iNKT cells [2] = experiment: Diet induced obesity (HFD) mouse model: iNKT cell expansion in spleen or eWAT; type: in vivo, C57BL/6J mice; settings: HFD mice, I.P. 2 g, four days post-injection
Method: as §6, §7

senescent cells in eWAT = experiment: Diet induced obesity (HFD) mouse model: senescent cells (C12FDG+) in eWAT; type: in vivo, C57BL/6J mice; settings: HFD mice, four days post-injection; FIG. 5E
Method: as §6, §7

primary human iNKT cells = experiment: Cytokine secretion of primary human iNKT cells co-cultured with drug-loaded BWSTIM cells; type: cell-based; settings: for IFNγ secretion compared to the no-compound control / IL6 secretion compared to the no-compound control / TNFα secretion compared to the no-compound control: BWSTIM loaded with 10 μg/mL; for IFNγ secretion compared to the no-compound control: FIG. 3A; for IL6 secretion compared to the no-compound control: FIG. 3B; for TNFα secretion compared to the no-compound control: FIG. 3C
Method: In order to determine the activation profile induced by the compounds described herein, primary human iNKT cells were co-cultured with drug-loaded BWSTIM cells.
Day 0: PBMCs were isolated from human blood using the STEMCELL TECHNOLOGIES™ SepMate™ PBMC isolation system. iNKT cells were then selected using the Miltenyi NKT magnetic cell separation kit.
Day 2: DCD molecules or α-GalCer were both dissolved in DMSO at a 5 mg/mL stock solution. BWSTIM cells were fixed with mitomycin C, then loaded with 10 μg/mL of DCD molecules or α-GalCer for 4 hours at 37° C. at a concentration of 20 k cells/well in 200 μL of media in a u-bottom 96 well dish. Cells were co-cultured with 80 k 6B11+ selected primary human iNKT cells.
D4: Media was collected. Cytokines were measured using the Satorious 4Plex kit on the iQue3 cytometer.
GVK molecules or α-GalCer were both dissolved in DMSO at a 5 mg/mL stock solution. BWSTIM cells were loaded with compounds for 4 hours at 37° C. at a concentration of 20 k cells/well in 200 μL of media in a u-bottom 96 well dish. Cells were co-cultured with 100 k 6B11+ selected primary human iNKT cells. Media was collected 2 days later. Cytokines were measured using the Satorious 4Plex kit on the iQue3 cytometer.

DN3.2 = experiment: IL-2 Secretion (A20 + DN3.2); type: cell-based, mouse
[3] = GVK compounds vs absence of drug loading, α-GalCer vs GVK compounds, media collected 2 days later, FIG. 6C

CCCCCCCCCCCCCC[C@@H](O)[C@@H](O)[C@H](COC1OC(CO)C(O)C(O)C1O)NC(=O)CCCCCCCCCCC12CCC(CC1)CC2 (some centres unmarked) [DCD-102]
IL-2 secretion compared to α-GalCer (mouse iTCR): greater IL-2 secretion than α-GalCer

CCCCCCCCCCCCCC[C@@H](O)[C@@H](O)[C@H](COC1OC(CO)C(O)C(O)C1O)NC(=O)CCCCCCCCCCCCCCCCCCCCCCCC1COC1 (some centres unmarked) [DCD-153]
average iNKT cell isolated from the spleen compared to α-GalCer (iNKT cells [1]): higher than mice treated with α-GalCer
average serum IFNγ compared to α-GalCer (serum IFNγ): higher than the average serum IFNγ of C57BL/6J mice treated with α-GalCer
EC50 of the dose response based on percentage GFP+ cells, compared to α-GalCer (human iTCR): lower EC50s compared to α-GalCer

CCCCCCCCCCCCCC[C@@H](O)[C@@H](O)[C@H](COC1OC(CO)C(O)C(O)C1O)NC(=O)CCCCCCCCCCC12CC(CCCCCCCCCCCCC)(C1)C2 (some centres unmarked) [DCD-154]
secretion of IFNγ in the HFD mouse model (IFNγ): induce secretion of IFNγ
levels of IFNγ in the HFD model (IFNγ; twenty hours post injection, FIG. 5D): significantly increased levels of IFNγ
expansion of immune (iNKT) cells in HFD mouse eWAT (iNKT cells [2]; percent iNKT cells of live cells, FIG. 5B): caused expansion of immune cells in HFD mouse eWAT; also recorded: expand iNKT cells
average iNKT cell isolated from the spleen compared to α-GalCer (iNKT cells [1]): higher than mice treated with α-GalCer
average serum IFNγ compared to α-GalCer (serum IFNγ): higher than the average serum IFNγ of C57BL/6J mice treated with α-GalCer
accumulation of senescent cells (C12FDG+) in eWAT (senescent cells in eWAT): effective in decreasing the accumulation of senescent cells in eWAT; also recorded: Senescent cell reduction in adipose tissue is observed

CCCCCCCCCCCCCC[C@@H](O)[C@@H](O)[C@H](COC1OC(CO)C(O)C(O)C1O)NC(=O)CCCCCCCCCCCCCCCCCCCCCCCCC12CC(F)(C1)C2 (some centres unmarked) [DCD-156]
average serum IFNγ compared to α-GalCer (serum IFNγ): higher than the average serum IFNγ of C57BL/6J mice treated with α-GalCer
EC50 of the dose response based on percentage GFP+ cells, compared to α-GalCer (human iTCR): lower EC50s compared to α-GalCer

CCCCCCCCCCCCCC[C@@H](O)[C@@H](O)[C@H](COC1OC(CO)C(O)C(O)C1O)NC(=O)CCCCCCCCCCC12CC(F)(C1)C2 (some centres unmarked) [DCD-101]
IFNγ secretion compared to the no-compound control (primary human iNKT cells): significantly higher levels
IL6 secretion compared to the no-compound control (primary human iNKT cells): significantly higher levels
TNFα secretion compared to the no-compound control (primary human iNKT cells): significantly higher levels
secretion of IFNγ in the HFD mouse model (IFNγ): induce secretion of IFNγ
levels of serum IFNγ in the HFD model (IFNγ; two hours post injection, FIG. 5C): significantly increased levels of IFNγ
expansion of immune (iNKT) cells in HFD mouse spleen (iNKT cells [2]; FIG. 5A): caused expansion of immune cells in HFD mouse spleen; also recorded: expand iNKT cells
IL-2 secretion compared to α-GalCer (mouse iTCR): greater IL-2 secretion than α-GalCer
IL-2 secretion (mouse iTCR; ranking among tested compounds, at the lowest concentrations): highest IL-2 secretion at the lowest concentrations
accumulation of senescent cells (C12FDG+) in eWAT (senescent cells in eWAT): effective in decreasing the accumulation of senescent cells in eWAT; also recorded: Senescent cell reduction in adipose tissue is observed
EC50 of the dose response based on percentage GFP+ cells, compared to α-GalCer (human iTCR): lower EC50s compared to α-GalCer

CCCCCCCCCCCCCC[C@@H](O)[C@@H](O)[C@H](COC1OC(CO)C(O)C(O)C1O)NC(=O)CCCCCCCCCCC1CC1C (some centres unmarked) [DCD-106]
IFNγ secretion compared to the no-compound control (primary human iNKT cells): significantly higher levels
IL6 secretion compared to the no-compound control (primary human iNKT cells): significantly higher levels
TNFα secretion compared to the no-compound control (primary human iNKT cells): significantly higher levels
IL-2 secretion compared to α-GalCer (mouse iTCR): greater IL-2 secretion than α-GalCer
EC50 of the dose response based on percentage GFP+ cells, compared to α-GalCer (human iTCR): lower EC50s compared to α-GalCer

CCCCCCCCCCCCCCCCCCCCCCCCCC(=O)N[C@@H](CCC1OC(CO)C(O)C(O)C1O)[C@@H](O)[C@H](O)CCCCCCCCCCCCCC (some centres unmarked) [GVK1a]
secretion of IFNγ (primary human iNKT cells; [3]): did not increase secretion
secretion of IL-4 (primary human iNKT cells; [3]): did not increase secretion
secretion of IL-6 (primary human iNKT cells; [3]): did not increase secretion
secretion of TNFα (primary human iNKT cells; [3]): did not increase secretion
Primary iNKT cytokine release (primary human iNKT cells; IL-4, IL-6, IFNγ or TNFα): No activation
GFP expression compared to the negative control (human iTCR; 1 μg/mL, BWSTIM + JiNKT, 24 hours, FIG. 6A): did not induce GFP expression higher than the negative control
% GFP hiNKT binding (BWSTIM + JiNKT) 1 μg/mL, away from negative control (human iTCR; 1 μg/mL, difference from negative control): % <5 away from
IL-2 Secretion (A20 + DN3.2) (DN3.2): Activated
